Reference: publication PMC6747070, “β-Glucose-1,6-Bisphosphate Stabilizes Pathological Phophomannomutase2 Mutants In Vitro and Represents a Lead Compound to Develop Pharmacological Chaperones for the Most Common Disorder of Glycosylation, PMM2-CDG” (International Journal of Molecular Sciences, 2019)

Legend:
PMM2 (wt-PMM2) [1] = molecular target: T1, PMM2 (wt-PMM2) (Homo sapiens, UniProt O15305); test: thermal shift assay (Sypro Orange); type: binding; conditions: 0.5 mM ligand, without vanadate; Hepes 20 mM pH 7.5, Mg2+, NaCl, DTT
T1 construct: recombinant, vector Pet22b+, E. coli BL21(DE3), no tag mentioned; homodimer; DEAE-Sepharose and Superdex 75 purification
T1 sequence (O15305 2-246): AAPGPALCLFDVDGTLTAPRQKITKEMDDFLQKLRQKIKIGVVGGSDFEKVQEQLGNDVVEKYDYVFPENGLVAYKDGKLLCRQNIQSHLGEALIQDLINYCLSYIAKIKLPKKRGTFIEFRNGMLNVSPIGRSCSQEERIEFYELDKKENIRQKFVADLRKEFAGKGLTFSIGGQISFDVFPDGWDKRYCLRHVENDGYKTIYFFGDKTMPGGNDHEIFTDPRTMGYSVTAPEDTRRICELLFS

PMM2 (wt-PMM2) [2] = molecular target: T1, PMM2 (wt-PMM2); test: […]-NMR phosphomannomutase assay; type: biochemical; conditions: inhibitor; βG16P 5 or 50 μM; 1 mM αM1P, activator αG16P 5 μM; Hepes pH 7.3, MgCl2 1 mM, 32 °C

SMILES | dTm (PMM2 (wt-PMM2) [1]) | inhibition (PMM2 (wt-PMM2) [2])
O=P(O)(O)O[C@H]1O[C@H](CO)[C@@H](O)[C@H](O)[C@H]1O [αG1P] | αG1P is a stabilizer of PMM2 too | –
O=P(O)(O)OC[C@H]1O[C@@H](OP(=O)(O)O)[C@H](O)[C@@H](O)[C@@H]1O [βG16P] | – | βG16P is not an activator and show that it inhibits PMM2
